{"source": "patent US7943142B2", "about": "“Euglenoid derived alkaloid” (priority 2008, dated 2011)", "key": {"[1]": {"system": "GH4C1 rat pituitary cells", "experiment": "Cytotoxicity against GH4C1 rat pituitary tissue culture cells", "format": "cell-based"}, "fish": {"system": "fish", "experiment": "Fish bioassay (ichthyotoxicity)", "format": "in vivo", "details": "purified toxin", "protocol": "The toxic solvent extracts were subjected to HPLC analytical fractionation. Bioassay guided fractionation was used in all phases of separation to track sample activity and cytotoxic and/or ichthyotoxic extracts were identified. HPLC purification was carried out using a WATERS HPLC system (WATERS 2767 Sample Manager, 1525 Binary Pump, 510 pump, WATERS 2996 PDA and a WATERS ZQ Single Quadrature Mass Detector outfitted with an active flow splitter, switching valve using MASS LYNX software (Waters Corporation, Milford, Mass.). The HPLC/MS method was a water/acetone gradient with 0.2% TFA in both solvents. Extract was loaded onto a Phenomenex (Phenomenex Corporation, Torrance, Calif.) C18 LUNA 3 μm particle size, 250×4.6 mm column. The flow scheme conditions were: 1 mL/min flow rate, 90:10 Water/acetone (hold for 2 minutes). This was followed by a linear gradient over 20 minutes to 100% acetone. The acetone was held for 3 minutes prior to original flow conditions. Column temperature was held at 35° C.\nNMR and mass spectral analysis provided unambiguous identification of the novel toxin. […] The euglenoids in culture appear to form the toxin independently of growth phase."}, "[2]": {"system": "Ht-29 (ATCC HTB-38) adenocarcinoma cell line", "experiment": "Toxicity against adenocarcinoma cell line Ht-29 (MTS or MTT assay)", "format": "cell-based", "details": "summary statement; test of Example 3 / FIG. 3", "protocol": "Specifically, cancer cells were grown to mid-exponential growth phase, aliquots were added to tissue culture plates with carrier (control) and varying euglenophycin toxin (25, 50, 100 mg/L final concentration), with and without 5-fluorouracil and maintained in dimethyl sulfoxide. Growth was monitored by colorimetric change associated with respiration using MTS or MTT assay)."}, "[3]": {"system": "Gomphonema parvum (diatom)", "experiment": "Algal growth (chlorophyll a) under euglenophycin exposure", "format": "cell-based", "details": "0.3, 3 and 30 mg/L; chlorophyll a read daily for four days; FIG. 2", "protocol": "(§1) Clonal isolates of five representative cyanoprokaryote, diatom, and green algae were grown in BG11 media at 28 C on a 14:10 L:D cycle. At mid-exponential phase growth, […] aliquots of each culture was transferred to 96-well plates. Carrier solvent (control) and euglenophycin toxin was added to three of more replicate vials (at 0, 300 ppb, 3 ppm, and 30 ppm) and growth was monitored for […].\n(§2) To evaluate the euglenophycin against the growth rate of selected algal taxa. Cultures of five algal species grown in batch culture were exposed to the euglenophycin. The culture include Microcystis aeruginosa (cyanobacteria), Planktothrix (cyanobacteria), Gomphonema parvum (diatom), Scenedesmus dimorphus (green algae), and Oocystis polymorpha (green algae). The cultures were grown using 14:10 hour L:D cycles, in BG11 culture media. When the alga reached exponential phase, the cells were dispensed into Falcon 96-well tissue culture plates and were dosed with euglenophycin at 0, 0.3, 3 and 30 mg/L concentrations. Solvent blanks (acetone) were included in the control test. Readings of chlorophyll a were made on a BMG Labtech FLUOstar Omega spectrometer daily for four days."}, "[4]": {"system": "Scenedesmus dimorphus (green algae)", "experiment": "Algal growth (chlorophyll a) under euglenophycin exposure", "format": "cell-based", "details": "0.3, 3 and 30 mg/L; chlorophyll a read daily for four days; FIG. 2", "protocol": "as §1, §2"}, "[5]": {"system": "Oocystis polymorpha (green algae)", "experiment": "Algal growth (chlorophyll a) under euglenophycin exposure", "format": "cell-based", "details": "0.3, 3 and 30 mg/L; chlorophyll a read daily for four days; FIG. 2", "protocol": "as §1, §2"}, "[6]": {"system": "Microcystis aeruginosa (cyanobacteria)", "experiment": "Algal growth (chlorophyll a) under euglenophycin exposure", "format": "cell-based", "details": "0.3, 3 and 30 mg/L; chlorophyll a read daily for four days; FIG. 2", "protocol": "as §1, §2"}, "[7]": {"system": "Planktothrix (cyanobacteria)", "experiment": "Algal growth (chlorophyll a) under euglenophycin exposure", "format": "cell-based", "details": "0.3, 3 and 30 mg/L; chlorophyll a read daily for four days; FIG. 2", "protocol": "as §1, §2"}}, "data": [{"molecule": "CCC/C=C\\CC/C=C/C=C/C1CCCC(CCCCO)N1", "note": "(centres unmarked) [euglenophycin]", "values": [{"measurement": "toxicity (cytotoxic activity) towards GH4C1 rat pituitary cells", "setting": "[1]", "value": "toxicity"}, {"measurement": "fish mortality on re-exposure to the toxin", "setting": "fish", "value": "fish mortalities"}, {"measurement": "activity against cancerous cell lines", "setting": "[2]", "value": "activity"}, {"measurement": "effect on culture (chlorophyll a)", "setting": "[3]", "value": "negatively affected"}, {"measurement": "effect on culture (chlorophyll a)", "setting": "[4]", "value": "negatively affected"}, {"measurement": "effect on culture (chlorophyll a)", "setting": "[5]", "value": "negatively affected"}, {"measurement": "effect on culture (chlorophyll a)", "setting": "[6]", "value": "negatively affected"}, {"measurement": "effect on culture (chlorophyll a)", "setting": "[7]", "value": "negatively affected"}]}]}
